Reference: US9096492B2, “Hydrated N-fullerene amino acids, method for producing the latter, and pharmaceutical compositions on the basis thereof” (priority 2011, dated 2015)

System: A/Aichi/2/69 (H3N2) influenza virus
Assay: Induced influenza pneumonia in mice
Details: for Percent death protection (%) / Survival (survivors/total) / Average lifetime (days) / Death rate (%): observation day 16
[1] = intraperitoneally 100 mg/kg/day

N-fullerene tris(δ-aminocaproic acid) hydrate [Agent 1]
Percent death protection (%) (intramuscularly 50 mg/kg/day): 50% | Survival (survivors/total) (intramuscularly 50 mg/kg/day): 6/10 | Percent body weight change (intramuscularly 100 mg/kg/day, day 1 post infection): +13% | Percent body weight change (intramuscularly 100 mg/kg/day, day 2 post infection): +17% | Percent body weight change (intramuscularly 100 mg/kg/day, day 3 post infection): +23% | Percent body weight change (intramuscularly 100 mg/kg/day, day 4 post infection): +28% | Percent body weight change (intramuscularly 100 mg/kg/day, day 5 post infection): +31% | Percent body weight change (intramuscularly 100 mg/kg/day, day 7 post infection): +39% | Percent body weight change (intramuscularly 100 mg/kg/day, day 9 post infection): +65% | Percent body weight change (intramuscularly 100 mg/kg/day, day 11 post infection): +7% | Percent body weight change (intramuscularly 100 mg/kg/day, day 13 post infection): +82% | Average lifetime (days) (intramuscularly 100 mg/kg/day): 13.5 (1-8 d, 1-9 d) days | Death rate (%) (intramuscularly 100 mg/kg/day): 20% | Percent death protection (%) (intramuscularly 100 mg/kg/day): 70% | Survival (survivors/total) (intramuscularly 100 mg/kg/day): 8/10 | Percent body weight change (intramuscularly 200 mg/kg/day, day 1 post infection): +11% | Percent body weight change (intramuscularly 200 mg/kg/day, day 2 post infection): +20% | Percent body weight change (intramuscularly 200 mg/kg/day, day 3 post infection): +26% | Percent body weight change (intramuscularly 200 mg/kg/day, day 4 post infection): +35% | Percent body weight change (intramuscularly 200 mg/kg/day, day 5 post infection): +39% | Percent body weight change (intramuscularly 200 mg/kg/day, day 7 post infection): +43% | Percent body weight change (intramuscularly 200 mg/kg/day, day 9 post infection): +51% | Percent body weight change (intramuscularly 200 mg/kg/day, day 11 post infection): +62% | Percent body weight change (intramuscularly 200 mg/kg/day, day 13 post infection): +70% | Average lifetime (days) (intramuscularly 200 mg/kg/day): 14.4 (1-10 d) days | Death rate (%) (intramuscularly 200 mg/kg/day): 10% | Percent death protection (%) (intramuscularly 200 mg/kg/day): 80% | Survival (survivors/total) (intramuscularly 200 mg/kg/day): 9/10 | tolerability in infected mice (intraperitoneal, 200 mg/kg/day): toxic | Percent body weight change (intraperitoneally 50 mg/kg/day, day 1 post infection): +11% | Percent body weight change (intraperitoneally 50 mg/kg/day, day 2 post infection): +17% | Percent body weight change (intraperitoneally 50 mg/kg/day, day 3 post infection): +22% | Percent body weight change (intraperitoneally 50 mg/kg/day, day 4 post infection): +25% | Percent body weight change (intraperitoneally 50 mg/kg/day, day 5 post infection): +28% | Percent body weight change (intraperitoneally 50 mg/kg/day, day 7 post infection): +35% | Percent body weight change (intraperitoneally 50 mg/kg/day, day 9 post infection): +41% | Percent body weight change (intraperitoneally 50 mg/kg/day, day 11 post infection): +67% | Percent body weight change (intraperitoneally 50 mg/kg/day, day 13 post infection): +77% | Average lifetime (days) (intraperitoneally 50 mg/kg/day): 11.5 (1-5 d., 1-7 d., 3-11 d.) days | Death rate (%) (intraperitoneally 50 mg/kg/day): 50% | Percent death protection (%) (intraperitoneally 50 mg/kg/day): 40% | Survival (survivors/total) (intraperitoneally 50 mg/kg/day): 5/10 | Percent body weight change (intraperitoneally 100 mg/kg/day, day 1 post infection): +9% | Percent body weight change (intraperitoneally 100 mg/kg/day, day 2 post infection): +15% | Percent body weight change (intraperitoneally 100 mg/kg/day, day 3 post infection): +19% | Percent body weight change (intraperitoneally 100 mg/kg/day, day 4 post infection): +21% | Percent body weight change (intraperitoneally 100 mg/kg/day, day 5 post infection): +21% | Percent body weight change (intraperitoneally 100 mg/kg/day, day 7 post infection): +27% | Percent body weight change (intraperitoneally 100 mg/kg/day, day 9 post infection): +37% | Percent body weight change (intraperitoneally 100 mg/kg/day, day 11 post infection): +50% | Percent body weight change (intraperitoneally 100 mg/kg/day, day 13 post infection): +82% | Average lifetime (days) [1]: 11.0 (3-7 d., 1-8 d., 1-11 d) days | Death rate (%) [1]: 50% | Percent death protection (%) [1]: 40% | Survival (survivors/total) [1]: 5/10 | Percent body weight change (orally 100 mg/kg/day, day 1 post infection): +12% | Percent body weight change (orally 100 mg/kg/day, day 2 post infection): +17% | Percent body weight change (orally 100 mg/kg/day, day 3 post infection): +23% | Percent body weight change (orally 100 mg/kg/day, day 4 post infection): +25% | Percent body weight change (orally 100 mg/kg/day, day 5 post infection): +24% | Percent body weight change (orally 100 mg/kg/day, day 7 post infection): +21% | Percent body weight change (orally 100 mg/kg/day, day 9 post infection): +23% | Percent body weight change (orally 100 mg/kg/day, day 11 post infection): +34% | Percent body weight change (orally 100 mg/kg/day, day 13 post infection): +44% | Average lifetime (days) (orally 100 mg/kg/day): 10.4 (2-7 d., 1-9 d., 1-10 d) days | Death rate (%) (orally 100 mg/kg/day): 50% | Percent death protection (%) (orally 100 mg/kg/day): 40% | Survival (survivors/total) (orally 100 mg/kg/day): 5/10 | Percent body weight change (orally 200 mg/kg/day, day 1 post infection): +15% | Percent body weight change (orally 200 mg/kg/day, day 2 post infection): +20% | Percent body weight change (orally 200 mg/kg/day, day 3 post infection): +23% | Percent body weight change (orally 200 mg/kg/day, day 4 post infection): +25% | Percent body weight change (orally 200 mg/kg/day, day 5 post infection): +24% | Percent body weight change (orally 200 mg/kg/day, day 7 post infection): +22% | Percent body weight change (orally 200 mg/kg/day, day 9 post infection): +25% | Percent body weight change (orally 200 mg/kg/day, day 11 post infection): +45% | Percent body weight change (orally 200 mg/kg/day, day 13 post infection): +57% | Average lifetime (days) (orally 200 mg/kg/day): 13.0 (1-7 d., 1-10 d., 1-11 d) days | Death rate (%) (orally 200 mg/kg/day): 30% | Percent death protection (%) (orally 200 mg/kg/day): 60% | Survival (survivors/total) (orally 200 mg/kg/day): 7/10
